Experimental data as given in BindingDB's records for doi:10.1016/S0960-894X(00)80339-X (1993).

Target: Squalene monooxygenase (Sus scrofa)
Test: Inhibitory concentration at which 50% decrease in the activity of Squalene epoxidase in pig liver microsomes

SMILES | IC50
CC(C)=CCC/C(C)=C/CC/C(C)=C/CC/C=C(\C)CC/C=C(\C)CC/C=C/[N+](=O)[O-] [(1E,5E,9E,13E,17E)-5,9,14,18,22-Pentamethyl-1-nitro-tricosa-1,5,9,13,17,21-hexaene] | > 400 µM
CC(C)=CCC/C(C)=C/CC/C(C)=C/CC/C=C(\C)CC/C=C(\C)CCCN(C)O [N-Methyl-N-((4E,12E,16E,20E)-4,8,13,17,21-pentamethyl-docosa-4,8,12,16,20-pentaenyl)-hydroxylamine] | 13 µM
